# Data: patent publication US8541404B2, “Inhibitors of the human aldosterone synthase CYP11B2” (ElexoPharm GmbH, priority 2009, dated 2013)
# Counter-ions that a name gives are not always drawn.
row,melting point [°C],SMILES
1,283,"S=C1CCc2cc(-c3cccnc3)cc3c2N1CC3 (as salt: HCl) [Example 22, 8-Pyridin-3-yl-1,2,5,6-tetrahydro-pyrrolo[3,2,1-ij]quinoline-4-thione]"
2,> 300,"O=C1CCc2cc(-c3cncc(O)c3)cc3c2N1CC3 (as salt: HCl) [Example 23, 8-(5-Hydroxypyridin-3-yl)-1,2,5,6-tetrahydro-pyrrolo[3,2,1-ij]quinolin-4-one]"
3,152,"O=C1CCc2cc(-c3cccnc3)cc3c2N1CC3 [Example 11, 8-Pyridin-3-yl-1,2,5,6-tetrahydro-pyrrolo[3,2,1-ij]quinoline-4-one]"
4,175,"S=C1CCc2cc(-c3cccnc3)cc(Cl)c2N1 [Example 15, 8-Chloro-6-pyridin-3-yl-3,4-dihydro-1H-quinoline-2-thione]"
5,123,"O=C1CCc2cc(-c3cccnc3)cc3c2N1CCC3 [Example 16, 9-Pyridin-3-yl-1,2,6,7-tetrahydro-5H-pyrido[3,2,1-ij]quinolin-3-one]"
6,172,"COc1cncc(-c2cc3c4c(c2)CCN4C(=O)CC3)c1 [Example 17, 8-(5-Methoxypyridin-3-yl)-1,2,5,6-tetrahydro-pyrrolo[3,2,1-ij]quinolin-4-one]"
7,180,"CC1(C)CC(=O)N2CCc3cc(-c4cccnc4)cc1c32 [Example 24, 6,6-Dimethyl-8-pyridin-3-yl-1,2,5,6-tetrahydro-pyrrolo[3,2,1-ij]quinolin-4-one]"
8,172,"CCOc1cncc(-c2cc3c4c(c2)CCN4C(=O)CC3)c1 [Example 25, 8-(5-Ethoxypyridin-3-yl)-1,2,5,6-tetrahydro-pyrrolo[3,2,1-ij]quinolin-4-one]"
9,158,"O=C1CCc2cc(-c3cncc(F)c3)cc3c2N1CC3 [Example 27, 8-(5-Fluoropyridin-3-yl)-1,2,5,6-tetrahydro-pyrrolo[3,2,1-ij]quinolin-4-one]"
10,174,"O=C1CCc2cc(-c3ccncc3)cc3c2N1CC3 [Example 29, 8-Pyridin-4-yl-1,2,5,6-tetrahydro-pyrrolo[3,2,1-ij]quinolin-4-one]"
11,186,"O=C1CCc2cc(-c3cncnc3)cc3c2N1CC3 [Example 30, 8-Pyrimidin-5-yl-1,2,5,6-tetrahydro-pyrrolo[3,2,1-ij]quinolin-4-one]"
12,147,"O=C(c1cccnc1)c1cc2c3c(c1)CCN3C(=O)CC2 [Example 32, 8-(Pyridine-3-carbonyl)-1,2,5,6-tetrahydro-pyrrolo[3,2,1-ij]quinolin-4-one]"
13,189,"O=C1CCc2cc(-c3cncc(-c4ccccc4)c3)cc3c2N1CC3 [Example 33, 8-(5-Phenylpyridin-3-yl)-1,2,5,6-tetrahydro-pyrrolo[3,2,1-ij]quinolin-4-one]"
14,181,"O=C1CCc2cc(-c3cncc(-c4cccc(F)c4)c3)cc3c2N1CC3 [Example 37, 8-[5-(3-Fluorophenyl)-pyridin-3-yl]-1,2,5,6-tetrahydro-pyrrolo[3,2,1-ij]quinolin-4-one]"
15,235,Fc1cc(-c2cccnc2)cc2c1NC(=S)CC2 [Example 51]

# More lines, now with the values behind:
row,SMILES,melting point [°C]
1,"CN1C(=O)CCc2cc(-c3cccnc3)ccc21 [Example 2, 1-Methyl-6-pyridin-3-yl-3,4-dihydro-1H-quinolin-2-one]",101
2,"COc1cncc(-c2ccc3c(c2)CCC(=O)N3)c1 [Example 4, 6-(5-Methoxypyridin-3-yl)-3,4-dihydro-1H-quinolin-2-one]",215
3,"CC(C)N1C(=O)CCc2cc(-c3cccnc3)ccc21 [Example 10, 1-Isopropyl-6-pyridin-3-yl-3,4-dihydro-1H-quinolin-2-one]",101
4,"O=C1CCc2cc(-c3cccnc3)cc([N+](=O)[O-])c2N1 [Example 13, 8-Nitro-6-pyridin-3-yl-3,4-dihydro-1H-quinolin-2-one]",189
5,"O=C1CCc2cc(-c3cncc4ccccc34)cc3c2N1CC3 [Example 18, 8-Isoquinolin-4-yl-1,2,5,6-tetrahydro-pyrrolo[3,2,1-ij]quinolin-4-one]",185
6,"O=C1CCc2cc(-c3cncc4ccccc34)cc3c2N1CCC3 [Example 20, 9-Isoquinolin-4-yl-1,2,6,7-tetrahydro-5H-pyrido[3,2,1-ij]quinolin-3-one]",159
7,"O=C1CCc2cc(-c3cncnc3)ccc2N1 [Example 21, 6-Pyrimidin-5-yl-3,4-dihydro-1H-quinolin-2-one]",233
8,"O=C1CCc2cc(-c3cncc(C(F)(F)F)c3)cc3c2N1CC3 [Example 26, 8-(5-Trifluoromethylpyridin-3-yl)-1,2,5,6-tetrahydro-pyrrolo[3,2,1-ij]quinolin-4-one]",212
9,"O=C(c1ccncc1)c1cc2c3c(c1)CCN3C(=O)CC2 [Example 31, 8-(Pyridine-4-carbonyl)-1,2,5,6-tetrahydro-pyrrolo[3,2,1-ij]quinolin-4-one]",184
10,"CC(C)Oc1cncc(-c2cc3c4c(c2)CCN4C(=O)CC3)c1 [Example 34, 8-(5-Isopropoxypyridin-3-yl)-1,2,5,6-tetrahydro-pyrrolo[3,2,1-ij]quinolin-4-one]",155
11,"CC(c1cc2c3c(c1)CCN3C(=O)CC2)n1ccnc1 (centres unmarked) [Example 35, 8-(1-Imidazol-1-yl-ethyl)-1,2,5,6-tetrahydro-pyrrolo[3,2,1-ij]quinolin-4-one]",197
12,"O=C1CCc2cc(-c3cncc(-c4ccc(F)cc4)c3)cc3c2N1CC3 [Example 36, 8-[5-(4-Fluorophenyl)-pyridin-3-yl]-1,2,5,6-tetrahydro-pyrrolo[3,2,1-ij]quinolin-4-one]",233
13,O=C1CCc2cc(-c3cccnc3)cc(F)c2N1 [Example 46],203
14,O=C1CCc2cc(-c3cccnc3)c(F)cc2N1 [Example 47],228
15,"O=C1CCc2cc(-c3cncc4ccccc34)cc(F)c2N1 [Example 48, 8-Fluoro-6-isoquinolin-4-yl-3-yl-3,4,4a,8a-tetrahydro-1H-quinolin-2-one]",202
16,O=C1CCc2cc(-c3cncc4ccccc34)c(F)cc2N1 [Example 49],281
17,O=C1CCc2cc(-c3cccnc3)c(O)cc2N1 [Example 50],298
18,Fc1cc2c(cc1-c1cccnc1)CCC(=S)N2 [Example 52],248
19,"O=C1COc2cc(-c3cccnc3)ccc2N1 [Example 53, 7-(Pyridin-3-yl)-2H-benzo[b][1,4]oxazin-3(4H)-one]",256
20,"O=C1COc2cc(-c3cncc4ccccc34)ccc2N1 [Example 55, 7-(Isoquinolin-4-yl)-2H-benzo[b][1,4]oxazin-3(4H)-one]",266
21,"O=C1CNc2cc(-c3cncc4ccccc34)ccc2N1 [Example 56, 6-(Isoquinolin-4-yl)-3,4-dihydroquinoxalin-2(1H)-one]",> 300
22,"CN1CC(=O)Nc2ccc(-c3cccnc3)cc21 [Example 57, 4-Methyl-6-(pyridin-3-yl)-3,4-dihydroquinoxalin-2(1H)-one]",> 300
23,"CCC(c1cc2c3c(c1)CCN3C(=O)CC2)n1ccnc1 (centres unmarked) [Example 60, 8-(1-(1H-imidazol-1-yl)propyl)-1,2,5,6-tetrahydropyrrolo[3,2,1-ij]quinolin-4-one]",195
